Experiment [1] concerns Primary human dermal microvascular endothelial cells. Kind of experiment: ECIS steady-state barrier function of confluent endothelial monolayers. The following applies: for endothelial barrier function (ECIS) compared to benchmark agents / endothelial barrier function (ECIS) compared to other Src inhibitors: bosutinib 300 nM; for endothelial barrier function (ECIS) compared to benchmark agents: HGF 100 ng/ml (1200 nM), APC 500 nM, monitored ~18 hours, FIG. 6; for endothelial barrier function (ECIS) compared to other Src inhibitors: dasatinib 300 nM, PP2 10 μM, monitored ~22 hours, FIG. 7. In kind it is cell-based. How it is done: (§1) Primary human dermal microvascular endothelial cells were grown to confluence. […] Data are mean±SEM of three independent experiments.
as §1, §1

Experiment [2] has as its system Primary bovine aortic endothelial cells. Kind of experiment: ECIS barrier function, dose response over 72 hours. In kind it is cell-based. The following applies: FIG. 2; for vascular barrier function (ECIS resistance, normalized to 1): single doses, 10 nM to 3 μM, monitored 72 hours. The procedure:
Primary bovine aortic endothelial cells were grown to confluence. Steady state barrier function was monitored by ECIS for 24 hours and normalized to a value of 1. […] Data are mean±SEM of three independent experiments.

For experiment [3], the system named is Primary human dermal microvascular endothelial cells. Kind of experiment: Thrombin- and histamine-induced vascular permeability assays (ECIS), pretreatment. The following applies: for protection to histamine challenge / protection to thrombin challenge: 300 nM for 30 min; for protection to histamine challenge: then histamine 300 μM, FIG. 3B; for protection to thrombin challenge: then thrombin 2.5 U/ml, FIG. 3A. The class given is cell-based. The procedure: For all assays, primary human dermal microvascular endothelial cells were grown to confluence. Steady state barrier function was monitored by ECIS and normalized to a value of 1. […] Data are mean±SEM of three independent experiments.

Experiment [4] has as its system Primary human dermal microvascular endothelial monolayers. As to the kind of experiment: Confocal imaging of actin and VE-cadherin junctions during permeability challenge. In kind it is cell-based. The source says:
Samples were fixed and stained for actin (i) and the junctional marker VE-cadherin (ii) before imaging by confocal microscopy. To assess quality of endothelial junctions (see B), image thresholding was applied to the VE-cadherin images to delineate the junctions (line traces in [iii]). […] Scale bar represents 10 μm.
Primary human dermal microvascular endothelial monolayers were challenged with either Thrombin (Thr) or Histamine (His) as described above for FIG. 5A. Quantitative analysis of (i) total junctional area per field and (ii) VE-cadherin intensity within junctions were performed to assess maintenance of junctional integrity. […] Data are mean±SEM of three independent experiments.

The subject of a further experiment is FIP rats. As to the kind of experiment: Polymicrobial sepsis model (feces-induced peritonitis; FIP), intravital microscopy of the hindlimb. The class given is in vivo, rat. The procedure: Disease onset was initiated by tail vein injection of a solution of saline and rat feces. […] Microvascular parameters were measured through intravital microscopy of the hindlimb at baseline, 3 hr and 5 hr post FIP onset. […] Data are representative of two separate pilot experiments.

In another experiment the target is Src (Homo sapiens, UniProt P12931). Conditions: cited from earlier work.
Where [5] appears, read: imaging-based analysis, FIGS. 5A and 5B.

The source of these data is patent US20160256457A1, “METHODS FOR TREATING OR PREVENTING ACUTE VASCULAR LEAK” (Beth Israel Deaconess Medical Center, Inc., priority 2014, published 2016).

“Also recorded” adds a separate entry of the source.

Src, sequence (P12931 whole entry, species assumed): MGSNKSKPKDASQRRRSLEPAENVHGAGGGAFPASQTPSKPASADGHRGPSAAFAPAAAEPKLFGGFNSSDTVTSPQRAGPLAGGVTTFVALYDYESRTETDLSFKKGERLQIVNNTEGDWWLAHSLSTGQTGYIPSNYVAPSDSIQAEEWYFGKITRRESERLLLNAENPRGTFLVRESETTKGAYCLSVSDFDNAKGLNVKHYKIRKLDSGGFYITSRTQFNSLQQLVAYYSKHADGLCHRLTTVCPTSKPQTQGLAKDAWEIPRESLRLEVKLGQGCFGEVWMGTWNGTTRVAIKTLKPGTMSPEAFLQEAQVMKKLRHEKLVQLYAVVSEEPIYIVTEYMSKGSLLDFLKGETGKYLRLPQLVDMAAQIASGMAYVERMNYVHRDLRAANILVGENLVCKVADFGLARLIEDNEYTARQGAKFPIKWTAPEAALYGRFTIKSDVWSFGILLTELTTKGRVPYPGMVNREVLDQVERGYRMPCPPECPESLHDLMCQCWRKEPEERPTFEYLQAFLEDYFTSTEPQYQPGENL

Take hepatocyte growth factor [HGF]: in experiment [1], the “endothelial barrier function (ECIS) compared to benchmark agents” value is on record as “initially promoted a similar increase, which was rapidly reversed after ˜20 minutes leading ultimately to a sustained decrease in barrier function”.

Take `COc1cc(Nc2c(C#N)cnc3cc(OCCCN4CCN(C)CC4)c(OC)cc23)c(Cl)cc1Cl` [bosutinib]: in experiment [1], the “endothelial barrier function (ECIS) compared to benchmark agents” value is “exhibits unprecedented efficacy and duration of action”; the “endothelial barrier function (ECIS) compared to other Src inhibitors” value is on record as “sustained increase in barrier function”. Moreover, the “endothelial barrier function (ECIS) compared to benchmark agents” value in experiment [1] (listed as Bosutinib) was “significant and sustained increase in barrier function”. Also, the “vascular barrier function (ECIS resistance, normalized to 1)” value in experiment [1] (single 300 nM dose, monitored 3 hours, FIG. 1) is reported as “profoundly enhanced base-line barrier properties; also recorded: increases in resistance”. Also, in experiment [2] (longest experiments conducted thus far), the duration of sustained barrier enhancement is > 72 h. Moreover, the “vascular barrier function (ECIS resistance, normalized to 1)” value in experiment [2] is recorded as “sustained, dose-dependent increase in vascular barrier function”. Further, in experiment [2] (listed as Bosutinib), the “vascular barrier function (ECIS resistance, normalized to 1)” value was “sustained barrier enhancement effects in a dose-dependent manner”. In experiment [3], the “protection to histamine challenge” value stood at 100% and the “protection to thrombin challenge” value was ~50%. For the same compound, the “protection against pro-leak stimuli by pretreatment” value in experiment [3] (thrombin, histamine, Ang-II and TNF-α) is recorded as “conferred profound protection against a range of pro-leak stimuli”. The “endothelial junction continuity and gap formation” value in experiment [4] (300 nM 30 min pretreatment, thrombin 2.5 U/ml or histamine 300 μM for 30 min, FIG. 5A) was “maintains continuous junctions and cortical actin during challenge”. Also, in experiment [4] (setting [5]), the “VE-cadherin and cortical actin at the intercellular junctions” value is “increase in VE-cadherin and cortical actin at the intercellular junctions”; the “actin stress fibers in endothelial cells” value is given as “decrease in actin stress fibers”. In addition, the “total junctional area per field” value in experiment [4] (thrombin or histamine challenge, FIG. 5B) is on record as “significantly increased junctional area compared to vehicle controls”. In addition, the percent oxygen saturation result in the experiment on FIP rats (10 mg/kg loading dose at 30 min, 5 mg/kg every two hours, tail vein, FIG. 8C) is “effectively preserved; also recorded: similarly maintained in bosutinib-treated, but not control, FIP rats”. Besides, in the experiment with FIP rats (10 mg/kg loading dose at 30 min, 5 mg/kg every two hours, tail vein, FIG. 8D), the capillary diameter result is “unaltered; also recorded: unchanged in both control and bosutinib rats”. Also, the “red blood cell (RBC) velocity” value in the experiment with FIP rats (10 mg/kg loading dose at 30 min, 5 mg/kg every two hours, tail vein, baseline, 3 hr and 5 hr post FIP onset, FIG. 8A) is on record as “rapidly decline following sepsis onset in control rats, but not in bosutinib-treated rats”. Besides, the RBC supply rate result in the experiment with FIP rats (10 mg/kg loading dose at 30 min, 5 mg/kg every two hours, tail vein, baseline, 3 hr and 5 hr post FIP onset, FIG. 8B) is “rapidly decline following sepsis onset in control rats, but not in bosutinib-treated rats”. The microvascular flow entry in the experiment on FIP rats (pilot studies, septic rats, FIGS. 8A and 8B) was “effectively preserved”. The “efficacy against Src kinase” value at Src is “low nanomolar range”.

For the compound activated protein C [APC], the “endothelial barrier function (ECIS) compared to benchmark agents” value in experiment [1] is “increase in barrier function that was relatively minor in both magnitude and duration”.

As to `Cc1ccc(NC(=O)c2ccc(CN3CCN(C)CC3)cc2)cc1Nc1nccc(-c2cccnc2)n1` [imatinib, Imatinib], in experiment [3], the “protection to histamine challenge” value is reported as 5-10% and the “protection to thrombin challenge” value was 5-10%.

Regarding `CC(C)(C)n1nc(-c2ccc(Cl)cc2)c2c(N)ncnc21` [PP2, 3-(4-chlorophenyl)-1-(1,1-dimethylethyl)-1H-pyr-azolo[3,4-d]pyrimidin-4-amine], the “endothelial barrier function (ECIS) compared to other Src inhibitors” value in experiment [1] is on record as “greatly reduced, endothelial barrier function; also recorded: sustained decreases in barrier function”.
